Experimental data as given in PMC12888861, “Antibacterial activity of enmetazobactam against Acinetobacter spp.: a molecular dissection of mechanism of action and resistance determinants” (Antimicrobial Agents and Chemotherapy, 2025).

Tested on: carbapenem-susceptible A. baumannii isolates (n = 54)
Experiment: MIC, broth microdilution (EUCAST), carbapenem-susceptible A. baumannii isolates
Type: cell-based, Acinetobacter baumannii
Settings: for MIC: in combinations ETZ fixed at 8 mg/L
Description: The bacterial strains used in this study comprised 208 clinical isolates from the Spanish National Acinetobacter spp. 2020 Multicenter Collection, which was previously characterized in detail by our research group, including whole-genome sequencing, phylogenetics studies, clonal dynamics, and resistance mechanisms ([2], [29]). Additionally, a collection of A. baumannii ATCC 17978 transformants coding the blaOXA-23, blaOXA-24/40, blaOXA-51, blaOXA-58, blaOXA-143, and blaOXA-201 genes, previously constructed and described by our group ([30]), was used to determine the activity of enmetazobactam against strains carrying the main CHDLs of A. baumannii.
The antimicrobial susceptibility of the 208 Acinetobacter spp. isolates was assessed using the broth microdilution method, as described in the European Committee on Antimicrobial Susceptibility Testing (EUCAST) v.15 guidelines (http://www.eucast.org/clinical_breakpoints). […] MICs for enmetazobactam alone were assessed as well. […] Subsequently, MIC testing was also conducted with a collection of A. baumannii ATCC 17978 transformants expressing clinically relevant OXA-like carbapenemase genes.
The A. baumannii ATCC 19606 strain was used as the reference strain in all susceptibility experiments, in duplicate assays. Antibiotics were purchased from Sigma-Aldrich, except enmetazobactam and durlobactam, which were obtained from Advanz Pharma and MedChemExpress, respectively.

[1] = Acinetobacter baumannii, carbapenem-susceptible A. baumannii isolates (n = 54), ETZ fixed 8 mg/L in combinations
[2] = […], ETZ fixed 8 mg/L in combinations

CO/N=C(\C(=O)N[C@@H]1C(=O)N2C(C(=O)[O-])=C(C[N+]3(C)CCCC3)CS[C@H]12)c1csc(N)n1 [cefepime]
MIC distribution 0.12: 0 | MIC (Acinetobacter baumannii, isolate Ab1, ST 164, ADC-6, OXA-91): 2 µg/mL | MIC (Acinetobacter baumannii, isolate Ab11, ST 239, ADC-2, OXA-51): 2 µg/mL | MIC (Acinetobacter baumannii, isolate Ab34, ST 2182, ADC-2, OXA-130): 2 µg/mL | MIC (Acinetobacter baumannii, isolate Ab38, ST 866, ADC-2, OXA-385): 8 µg/mL | MIC (Acinetobacter baumannii, isolate Ab40, ST 2176, ADC-2, OXA-64): 2 µg/mL | MIC (Acinetobacter baumannii, isolate Ab50, ST 2176, ADC-2, OXA-64): 2 µg/mL | MIC (Acinetobacter baumannii, isolate Ab57, ST 1470, ADC-58, OXA-106): 2 µg/mL | MIC (Acinetobacter baumannii, isolate Ab58, ST 6, ADC-2, OXA-94): 4 µg/mL | MIC (Acinetobacter baumannii, isolate Ab61, ST 1639, ADC-7, OXA-64): 1 µg/mL | MIC (Acinetobacter baumannii, isolate Ab62, ST 265, ADC-2, OXA-91): 1 µg/mL | MIC (Acinetobacter baumannii, isolate Ab67, ST 1, ADC-11, OXA-69): 2 µg/mL | MIC (Acinetobacter baumannii, isolate Ab79, ST 106, ADC-11, OXA-78): 1 µg/mL | MIC (Acinetobacter baumannii, isolate Ab80, ST 2182, ADC-6, OXA-208): 1 µg/mL | MIC (Acinetobacter baumannii, isolate Ab81, ST 25, ADC-79, OXA-64): 2 µg/mL | MIC (Acinetobacter baumannii, isolate Ab93, ST 25, ADC-79, OXA-64): 2 µg/mL | MIC (Acinetobacter baumannii, isolate Ab95, ST 582, ADC-5, OXA-317): 2 µg/mL | MIC (Acinetobacter baumannii, isolate Ab96, ST 582, ADC-5, OXA-317): 1 µg/mL | MIC (Acinetobacter baumannii, isolate Ab100, ST 145, ADC-58, OXA-343): 2 µg/mL | MIC (Acinetobacter baumannii, isolate Ab110, ST 1623, ADC-3, OXA-70): 8 µg/mL | MIC (Acinetobacter baumannii, isolate Ab112, ST 193, ADC-like, OXA-120): 0.5 µg/mL | MIC (Acinetobacter baumannii, isolate Ab124, ST 2176, ADC-2, OXA-64): 1 µg/mL | MIC (Acinetobacter baumannii, isolate Ab127, ST 2176, ADC-2, OXA-64): 2 µg/mL | MIC (Acinetobacter baumannii, isolate Ab128, ST 2176, ADC-2, OXA-64): 1 µg/mL | MIC (Acinetobacter baumannii, isolate Ab130, ST 32, ADC-79, OXA-100): 4 µg/mL | MIC (Acinetobacter baumannii, isolate Ab131, ST 687, ADC-like, OXA-208): 0.5 µg/mL | MIC (Acinetobacter baumannii, isolate Ab132, ST 1112, ADC-79, OXA-89): 4 µg/mL | MIC (Acinetobacter baumannii, isolate Ab136, ST 2183, ADC-like, OXA-66): 2 µg/mL | MIC (Acinetobacter baumannii, isolate Ab139, ST 54, ADC-like, OXA-365): 2 µg/mL | MIC (Acinetobacter baumannii, isolate Ab142, ST 1, ADC-like, OXA-69): 16 µg/mL | MIC (Acinetobacter baumannii, isolate Ab143, ST 1328, ADC-76, OXA-408): 2 µg/mL | MIC (Acinetobacter baumannii, isolate Ab149, ST 1112, ADC-6, OXA-407): 2 µg/mL | MIC (Acinetobacter baumannii, isolate Ab150, ST 2184, ADC-like, OXA-64): 2 µg/mL | MIC (Acinetobacter baumannii, isolate Ab152, ST 132, ADC-2, OXA-120): 2 µg/mL | MIC (Acinetobacter baumannii, isolate Ab158, ST 2034, ADC-2, OXA-217): 0.5 µg/mL | MIC (Acinetobacter baumannii, isolate Ab163, ST 132, ADC-2, OXA-120): 0.5 µg/mL | MIC (Acinetobacter baumannii, isolate Ab167, ST 1623, ADC-like, OXA-345): 1 µg/mL | MIC (Acinetobacter baumannii, isolate Ab168, ST 1470, ADC-75, OXA-402): 1 µg/mL | MIC (Acinetobacter baumannii, isolate Ab170, ST 2110, ADC-4, OXA-338): 2 µg/mL | MIC (Acinetobacter baumannii, isolate Ab172, ST 2185, ADC-5, OXA-217): 1 µg/mL | MIC (Acinetobacter baumannii, isolate Ab185, ST 2, ADC-26, OXA-66): 4 µg/mL | MIC (Acinetobacter baumannii, isolate Ab187, ST 105, ADC-2, OXA-430): 0.5 µg/mL | MIC (Acinetobacter baumannii, isolate Ab188, ST 203, ADC-6, OXA-217, PDC-1): 0.5 µg/mL | MIC (Acinetobacter baumannii, isolate Ab189, ST 1405, ADC-3, OXA-120): 1 µg/mL | MIC (Acinetobacter baumannii, isolate Ab190, ST 2186, ADC-6, OXA-413): 1 µg/mL | MIC (Acinetobacter baumannii, isolate Ab193, ST 164, ADC-6, OXA-91): 1 µg/mL | MIC (Acinetobacter baumannii, isolate Ab195, ST 1, ADC-11, OXA-69): 2 µg/mL | MIC (Acinetobacter baumannii, isolate Ab200, ST 1336, ADC-2, OXA-51): 2 µg/mL | MIC (Acinetobacter baumannii, isolate Ab202, ST 1, ADC-11, OXA-69): 2 µg/mL | MIC (Acinetobacter baumannii, isolate Ab203, ST 221, ADC-6, OXA-88): 1 µg/mL | MIC (Acinetobacter baumannii, isolate Ab206, ST 2187, ADC-58, OXA-69): 1 µg/mL | MIC (Acinetobacter baumannii, isolate Ab209): 1 µg/mL | MIC (Acinetobacter baumannii, isolate Ab213): 1 µg/mL | MIC (Acinetobacter baumannii, isolate Ab218): 2 µg/mL | MIC (Acinetobacter baumannii, isolate Ab220): 0.5 µg/mL | MIC50 [1]: 4 µg/mL | MIC90 [1]: 8 µg/mL | MIC distribution 0.25 [2]: 0 | MIC distribution 0.5 [2]: 0 | MIC distribution 1 [2]: 13.0 | MIC distribution 2 [2]: 44.4 | MIC distribution 4 [2]: 87.0 | MIC distribution 8 [2]: 94.4 | MIC distribution 16 [2]: 98.1 | MIC distribution ≤0.06 [2]: 0 | MIC distribution ≥32 [2]: 100
